Assay results reported in ChEMBL document CHEMBL1201862, “PubChem BioAssay data set” (2004).
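Cultured in 96-well plates, cells were exposed to test compound for 48 hours across five concentrations. GI50 marks 50% less growth.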 Calls of active or inactive are those of the source. Cut-off read from the data, not from the text of the source: active = GI50 up to about 1.1 µM and inactive = higher.

How the values were obtained:
Assay in all cases: growth of human tumour cells (NCI), 48 h
EKVX = test system: EKVX
K562 = test system: K562
SK-OV-3 = test system: SK-OV-3
M19-MEL = test system: M19-MEL
NCI-H460 = test system: NCI-H460
IGROV-1 = test system: IGROV-1
OVCAR-5 = test system: OVCAR-5
SK-MEL-2 = test system: SK-MEL-2
SK-MEL-28 = test system: SK-MEL-28
SNB-75 = test system: SNB-75
TK-10 = test system: TK-10
HCT-116 = test system: HCT-116
OVCAR-8 = test system: OVCAR-8
KM12 = test system: KM12
M14 = test system: M14
HCT-15 = test system: HCT-15
UO-31 = test system: UO-31
UACC-257 = test system: UACC-257
UACC-62 = test system: UACC-62
SK-MEL-5 = test system: SK-MEL-5
NCI-H226 = test system: NCI-H226
HCC 2998 = test system: HCC 2998
DLD-1 = test system: DLD-1
ACHN = test system: ACHN
CAKI-1 = test system: CAKI-1
SNB-78 = test system: SNB-78
HOP-92 = test system: HOP-92
Malme-3M = test system: Malme-3M
786-0 = test system: 786-0
SF-295 = test system: SF-295
HOP-18 = test system: HOP-18
HL-60 = test system: HL-60
SN12C = test system: SN12C
RXF 631 = test system: RXF 631
SNB-19 = test system: SNB-19
DMS-114 = test system: DMS-114
COLO 205 = test system: COLO 205
SF-268 = test system: SF-268
SW-620 = test system: SW-620
NCI-H522 = test system: NCI-H522
DMS-273 = test system: DMS-273
OVCAR-4 = test system: OVCAR-4
OVCAR-3 = test system: OVCAR-3
U-251 = test system: U-251
NCI-H23 = test system: NCI-H23
A549 = test system: A549
RPMI-8226 = test system: RPMI-8226
KM-20L2 = test system: KM-20L2
LXFL 529 = test system: LXFL 529
HOP-62 = test system: HOP-62
SF-539 = test system: SF-539
MOLT-4 = test system: MOLT-4
A498 = test system: A498
HT-29 = test system: HT-29
LOX IMVI = test system: LOX IMVI
CCRF-CEM = test system: CCRF-CEM
SR = test system: SR
RXF 393 = test system: RXF 393

Cc1cccc(C(C)(C)C)c1NC(=O)C(=O)Cc1nc2ccccc2s1
GI50 (EKVX): 27.4 µM (inactive)
GI50 (K562): > 100 µM (inactive)
GI50 (SK-OV-3): > 100 µM (inactive)
GI50 (M19-MEL): > 100 µM (inactive)
GI50 (NCI-H460): > 100 µM (inactive)
GI50 (IGROV-1): > 100 µM (inactive)
GI50 (OVCAR-5): > 100 µM (inactive)
GI50 (SK-MEL-2): > 100 µM (inactive)
GI50 (SK-MEL-28): > 100 µM (inactive)
GI50 (SNB-75): > 100 µM (inactive)
GI50 (TK-10): > 100 µM (inactive)
GI50 (HCT-116): > 100 µM (inactive)
GI50 (OVCAR-8): > 100 µM (inactive)
GI50 (KM12): > 100 µM (inactive)
GI50 (M14): > 100 µM (inactive)
GI50 (HCT-15): > 100 µM
GI50 (UO-31): > 100 µM (inactive)
GI50 (UACC-257): > 100 µM (inactive)
GI50 (UACC-62): > 100 µM (inactive)
GI50 (SK-MEL-5): > 100 µM (inactive)
GI50 (NCI-H226): > 100 µM (inactive)
GI50 (HCC 2998): > 100 µM (inactive)
GI50 (DLD-1): > 100 µM (inactive)
GI50 (ACHN): > 100 µM (inactive)
GI50 (CAKI-1): > 100 µM (inactive)
GI50 (SNB-78): > 100 µM (inactive)
GI50 (HOP-92): > 100 µM (inactive)
GI50 (Malme-3M): > 100 µM (inactive)
GI50 (786-0): > 100 µM (inactive)
GI50 (SF-295): > 100 µM (inactive)
GI50 (HOP-18): > 100 µM (inactive)
GI50 (HL-60): > 100 µM (inactive)
GI50 (SN12C): > 100 µM (inactive)
GI50 (RXF 631): > 100 µM (inactive)
GI50 (SNB-19): > 100 µM (inactive)
GI50 (DMS-114): > 100 µM (inactive)
GI50 (COLO 205): > 100 µM (inactive)
GI50 (SF-268): > 100 µM (inactive)
GI50 (SW-620): > 100 µM (inactive)
GI50 (NCI-H522): > 100 µM (inactive)
GI50 (DMS-273): > 100 µM (inactive)
GI50 (OVCAR-4): > 100 µM (inactive)
GI50 (OVCAR-3): > 100 µM (inactive)
GI50 (U-251): > 100 µM (inactive)
GI50 (NCI-H23): > 100 µM (inactive)
GI50 (A549): > 100 µM (inactive)
GI50 (RPMI-8226): > 100 µM (inactive)
GI50 (KM-20L2): > 100 µM (inactive)
GI50 (LXFL 529): > 100 µM (inactive)
GI50 (HOP-62): > 100 µM (inactive)
GI50 (SF-539): > 100 µM (inactive)
GI50 (MOLT-4): > 100 µM (inactive)
GI50 (A498): > 100 µM (inactive)
GI50 (HT-29): > 100 µM (inactive)
GI50 (LOX IMVI): > 100 µM (inactive)

C[N+](C)(C)CC1CCCC/C1=N\OC(=O)c1ccccc1 (centres undefined)
GI50 (EKVX): > 100 µM (inactive)
GI50 (K562): > 100 µM (inactive)
GI50 (CCRF-CEM): > 100 µM (inactive)
GI50 (SK-OV-3): > 100 µM (inactive)
GI50 (M19-MEL): > 100 µM (inactive)
GI50 (NCI-H460): > 100 µM (inactive)
GI50 (IGROV-1): > 100 µM (inactive)
GI50 (OVCAR-5): > 100 µM (inactive)
GI50 (SK-MEL-28): > 100 µM (inactive)
GI50 (SNB-75): > 100 µM (inactive)
GI50 (TK-10): 36.1 µM (inactive)
GI50 (HCT-116): > 100 µM (inactive)
GI50 (OVCAR-8): > 100 µM (inactive)
GI50 (KM12): > 100 µM (inactive)
GI50 (M14): > 100 µM (inactive)
GI50 (HCT-15): > 100 µM
GI50 (UO-31): > 100 µM (inactive)
GI50 (UACC-257): > 100 µM (inactive)
GI50 (UACC-62): > 100 µM (inactive)
GI50 (SK-MEL-5): > 100 µM (inactive)
GI50 (SR): > 100 µM (inactive)
GI50 (RXF 393): > 100 µM (inactive)
GI50 (HCC 2998): > 100 µM (inactive)
GI50 (DLD-1): > 100 µM (inactive)
GI50 (ACHN): > 100 µM (inactive)
GI50 (CAKI-1): > 100 µM (inactive)
GI50 (SNB-78): > 100 µM (inactive)
GI50 (HOP-92): > 100 µM (inactive)
GI50 (Malme-3M): > 100 µM (inactive)
GI50 (786-0): > 100 µM (inactive)
GI50 (SF-295): > 100 µM (inactive)
GI50 (HOP-18): > 100 µM (inactive)
GI50 (SN12C): > 100 µM (inactive)
GI50 (RXF 631): > 100 µM (inactive)
GI50 (SNB-19): > 100 µM (inactive)
GI50 (DMS-114): > 100 µM (inactive)
GI50 (COLO 205): > 100 µM (inactive)
GI50 (SF-268): > 100 µM (inactive)
GI50 (SW-620): > 100 µM (inactive)
GI50 (NCI-H522): > 100 µM (inactive)
GI50 (DMS-273): > 100 µM (inactive)
GI50 (OVCAR-4): > 100 µM (inactive)
GI50 (OVCAR-3): > 100 µM (inactive)
GI50 (U-251): > 100 µM (inactive)
GI50 (NCI-H23): > 100 µM (inactive)
GI50 (A549): > 100 µM (inactive)
GI50 (RPMI-8226): > 100 µM (inactive)
GI50 (KM-20L2): > 100 µM (inactive)
GI50 (LXFL 529): > 100 µM (inactive)
GI50 (HOP-62): > 100 µM (inactive)
GI50 (SF-539): > 100 µM (inactive)
GI50 (MOLT-4): > 100 µM (inactive)
GI50 (HT-29): > 100 µM (inactive)
GI50 (LOX IMVI): > 100 µM (inactive)
